Consider 13 compounds from patent publication US10336765B2, “Dihydropyranopyrimidinone derivatives, and use thereof” (St Pharm Co., LTD, priority 2015, dated 2019).

The IC50 is the point on the concentration scale where inhibition reaches its midpoint.

Like-named read-outs stand apart in the source and are kept apart here.

The assay has as its target T1, tankyrase 1 (Homo sapiens, UniProt O95271).
T1 construct: purchased Trevigen 4700-096-K
T1 sequence (O95271 1-1327): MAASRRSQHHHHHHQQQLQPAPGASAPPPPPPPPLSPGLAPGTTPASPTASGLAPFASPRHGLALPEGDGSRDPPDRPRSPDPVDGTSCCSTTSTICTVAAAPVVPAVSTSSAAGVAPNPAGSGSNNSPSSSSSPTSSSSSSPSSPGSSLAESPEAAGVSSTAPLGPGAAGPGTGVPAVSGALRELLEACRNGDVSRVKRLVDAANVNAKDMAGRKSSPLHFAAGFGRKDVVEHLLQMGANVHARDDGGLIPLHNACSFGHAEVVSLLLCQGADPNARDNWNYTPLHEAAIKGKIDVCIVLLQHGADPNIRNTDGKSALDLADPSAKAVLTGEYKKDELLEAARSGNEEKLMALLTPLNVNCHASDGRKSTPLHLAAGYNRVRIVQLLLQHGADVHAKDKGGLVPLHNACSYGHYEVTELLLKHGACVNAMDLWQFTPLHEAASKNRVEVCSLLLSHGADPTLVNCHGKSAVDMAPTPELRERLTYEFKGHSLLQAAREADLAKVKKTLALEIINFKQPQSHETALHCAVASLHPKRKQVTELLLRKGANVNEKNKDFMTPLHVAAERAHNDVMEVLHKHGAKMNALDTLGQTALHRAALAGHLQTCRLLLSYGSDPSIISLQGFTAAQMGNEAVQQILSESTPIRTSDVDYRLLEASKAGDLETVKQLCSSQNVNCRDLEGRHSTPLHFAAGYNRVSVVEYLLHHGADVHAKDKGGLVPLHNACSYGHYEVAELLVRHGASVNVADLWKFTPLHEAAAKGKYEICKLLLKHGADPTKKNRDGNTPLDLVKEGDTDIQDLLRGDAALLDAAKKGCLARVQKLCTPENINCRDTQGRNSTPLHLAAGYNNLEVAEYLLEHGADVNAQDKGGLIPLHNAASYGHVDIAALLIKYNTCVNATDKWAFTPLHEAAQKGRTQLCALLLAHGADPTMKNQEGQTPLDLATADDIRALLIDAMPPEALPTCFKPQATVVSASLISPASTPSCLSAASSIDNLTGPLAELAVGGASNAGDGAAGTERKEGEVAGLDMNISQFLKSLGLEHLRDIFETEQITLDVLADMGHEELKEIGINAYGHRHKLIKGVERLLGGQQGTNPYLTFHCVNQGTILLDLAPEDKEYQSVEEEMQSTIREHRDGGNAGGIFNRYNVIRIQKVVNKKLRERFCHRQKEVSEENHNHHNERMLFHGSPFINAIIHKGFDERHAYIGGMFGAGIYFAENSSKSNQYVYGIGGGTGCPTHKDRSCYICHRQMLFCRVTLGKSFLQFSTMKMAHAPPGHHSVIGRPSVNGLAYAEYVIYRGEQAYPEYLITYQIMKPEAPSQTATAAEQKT
Nature of the assay: Analysis of activity of tankyrase 1 (Trevigen kit, ELISA absorbance at 450 nm). The format is biochemical. As to the method:
Activities of novel compounds synthesized according to Examples 1 to 13 against tankyrase 1 were analyzed using a Trevigen kit (Cat. No. 4700-096-K). Poly PAR histone protein-coated 96-well plate, anti-PAR monoclonal antibody and goat anti-mouse IgG-HRP were used for measurement of absorbance by ELISA method. Specifically, 20×I-PAR assay buffer was diluted to 1× by adding water, and 50 μL of the diluted buffer was added to each well of the 96-well plate followed by reacting at rt for 30 min. Then, the supernatant was completely removed from each well and 10 μL of 1×I-PAR assay buffer and 15 μL of assay substrate were added to each well along with 1 μL of a 50× solution of inhibitors to be tested, which were the compounds obtained in the Examples 1 to 13. 10 mUnits/μL of tankyrase 1 enzyme was diluted 50-fold with 1×I-PAR assay buffer and 25 μL of the diluted enzyme was added to each well and reacted while stirring at rt for 30 min. One without any compound of the present invention was used as a positive control and another containing 1×I-PAR assay buffer with the same volume instead of tankyrase 1 enzyme was used as a negative control.
Upon completion of the reaction, 200 μL of PBSX, which was prepared by adding 0.1% triton X-100 to PBS, was added and removed and this washing process was repeated twice. Washing was repeated twice more using PBS in the same manner. 5× antibody diluent was diluted with distilled water to 1× concentration, 50 μL of the diluted goat anti-mouse IgG-HRP to 1/2000 was added to each well and reacted while stirring at rt for 30 min. Washes were carried out twice using PBSX and PBS, respectively. After adding 50 μL of TACS-sapphire to each well of the plate, the plate was blocked from light to react for 10 min to 15 min and the color of the reaction solution turned blue. To stop the reaction, 50 μL of 0.2N HCl was added to turn the solution yellow. Finally, the absorbance of the resulting solution was measured at 450 nm.
On the technique in general: In an ELISA, binding on a coated surface is turned into a signal by an enzyme label.

[1] abbreviates: Trevigen kit Cat. No. 4700-096-K, reacted at rt for 30 min, absorbance at 450 nm, read-out: TNKS1 (IC50).

For `COCCOc1cc(F)c(N2CCN(c3nc4c(c(=O)[nH]3)COCC4)CC2)c(F)c1` [Example 1, 2-(4-(2,6-difluoro-4-(2-methoxyethoxy)phenyl)piperazin-1-yl)-7,8-dihydro-3H-pyrano[4,3-d]pyrimidin-4(5H)-one], inhibition was half-maximal at 27.2 nM (IC50).
In the case of `O=c1[nH]c(N2CCN(c3c(F)cc(OCCN4CCCCC4)cc3F)CC2)nc2c1COCC2` [Example 3, 2-(4-(2,6-difluoro-4-(2-(piperidin-1-yl)ethoxy)phenyl)piperazin-1-yl)-7,8-dihydro-3H-pyrano[4,3-d]pyrimidin-4(5H)-one], the IC50 under setting [1] was determined as 40.3 nM.
Take `Cn1nnc(C2CCN(c3nc4c(c(=O)[nH]3)COCC4)CC2)n1` [Example 9, 2-(4-(2-methyl-2H-tetrazol-5-yl)piperidin-1-yl)-7,8-dihydro-3H-pyrano[4,3-d]pyrimidin-4(5H)-one]: the IC50 under setting [1] was 803 nM.
Same read-out and setting: to `CN1CCN(Cc2cc(F)c(N3CCN(c4nc5c(c(=O)[nH]4)COCC5)CC3)c(F)c2)CC1` [Example 6, 2-(4-(2,6-difluoro-4-((4-methylpiperazin-1-yl)methyl)phenyl)piperazin-1-yl)-7,8-dihydro-3H-pyrano[4,3-d]pyrimidin-4(5H)-one] belongs 36.8 nM.
For `COCCOc1cc(F)c(C2(O)CCN(c3nc4c(c(=O)[nH]3)COCC4)CC2)c(F)c1` [Example 8, 2-(4-(2,6-difluoro-4-(2-methoxyethoxy)phenyl)-4-hydroxypiperidin-1-yl)-7,8-dihydro-3H-pyrano[4,3-d]pyrimidin-4(5H)-one], the IC50 under setting [1] amounted to 162 nM.
The same measure, in the same setting: under `CC(O)c1cc(F)c(N2CCN(c3nc4c(c(=O)[nH]3)COCC4)CC2)c(F)c1` (stereo not shown) [Example 7, 2-(4-(2,6-difluoro-4-(1-hydroxyethyl)phenyl)piperazin-1-yl)-7,8-dihydro-3H-pyrano[4,3-d]pyrimidin-4(5H)-one] stands 21.8 nM; under `O=c1[nH]c(N2CCN(c3c(F)cc(OCCN4CCOCC4)cc3F)CC2)nc2c1COCC2` [Example 2, 2-(4-(2,6-difluoro-4-(2-morpholinoethoxy)phenyl)piperazin-1-yl)-7,8-dihydro-3H-pyrano[4,3-d]pyrimidin-4(5H)-one], 40.6 nM.
Turning to `O=c1[nH]c(N2CCN(c3c(F)cc(OCCO)cc3F)CC2)nc2c1COCC2` [Example 4, 2-(4-(2,6-difluoro-4-(2-hydroxyethoxy)phenyl)piperazin-1-yl)-7,8-dihydro-3H-pyrano[4,3-d]pyrimidin-4(5H)-one], under setting [1], the IC50 turned out to be 26.6 nM.
Still for that read-out and setting: under `O=C(COc1cc(F)c(N2CCN(c3nc4c(c(=O)[nH]3)COCC4)CC2)c(F)c1)N1CCCCC1` [Example 10, 2-(4-(2,6-difluoro-4-(2-oxo-2-(piperidin-1-yl)ethoxy)phenyl)piperazin-1-yl)-7,8-dihydro-3H-pyrano[4,3-d]pyrimidin-4(5H)-one] stands 34.2 nM; under `O=c1[nH]c(N2CCN(c3c(F)cc(OCC(O)CO)cc3F)CC2)nc2c1COCC2` (stereo not shown) [Example 5, 2-(4-(4-(2,3-dihydroxypropoxy)-2,6-difluorophenyl)piperazin-1-yl)-7,8-dihydro-3H-pyrano[4,3-d]pyrimidin-4(5H)-one], 26.1 nM; under `O=c1[nH]c(N2CCN(c3c(F)cc(OCCn4ccnc4)cc3F)CC2)nc2c1COCC2` [Example 13, 2-(4-(4-(2-(1H-imidazol-1-yl)ethoxy)-2,6-difluorophenyl)piperazin-1-yl)-7,8-dihydro-3H-pyrano[4,3-d]pyrimidin-4(5H)-one], 25.4 nM.
Regarding `CCN(CC)CCOc1cc(F)c(N2CCN(c3nc4c(c(=O)[nH]3)COCC4)CC2)c(F)c1` [Example 12, 2-(4-(4-(2-(diethylamino)ethoxy)-2,6-difluorophenyl)piperazin-1-yl)-7,8-dihydro-3H-pyrano[4,3-d]pyrimidin-4(5H)-one], under setting [1], the IC50 was 33.6 nM.
Take `COCCOc1cc(F)c(C2CCN(c3nc4c(c(=O)[nH]3)COCC4)CC2)c(F)c1` [Example 11, 2-(4-(2,6-difluoro-4-(2-methoxyethoxy)phenyl)piperidin-1-yl)-7,8-dihydro-3H-pyrano[4,3-d]pyrimidin-4(5H)-one]: the IC50 under setting [1] amounted to 74.4 nM.
